Reference: ChEMBL document CHEMBL5465560, “Selectivity Literature for EUbOPEN Chemogenomic Library” (2024)

Experiments:
[1] = molecular target: T1, Tyrosine-protein kinase ZAP-70 (Homo sapiens) (UniProt P43403); test: Selectivity interaction (KinomeScan (DiscoverX)) EUB0000229b ZAP70; settings: at 10 µM
T1 sequence (whole entry): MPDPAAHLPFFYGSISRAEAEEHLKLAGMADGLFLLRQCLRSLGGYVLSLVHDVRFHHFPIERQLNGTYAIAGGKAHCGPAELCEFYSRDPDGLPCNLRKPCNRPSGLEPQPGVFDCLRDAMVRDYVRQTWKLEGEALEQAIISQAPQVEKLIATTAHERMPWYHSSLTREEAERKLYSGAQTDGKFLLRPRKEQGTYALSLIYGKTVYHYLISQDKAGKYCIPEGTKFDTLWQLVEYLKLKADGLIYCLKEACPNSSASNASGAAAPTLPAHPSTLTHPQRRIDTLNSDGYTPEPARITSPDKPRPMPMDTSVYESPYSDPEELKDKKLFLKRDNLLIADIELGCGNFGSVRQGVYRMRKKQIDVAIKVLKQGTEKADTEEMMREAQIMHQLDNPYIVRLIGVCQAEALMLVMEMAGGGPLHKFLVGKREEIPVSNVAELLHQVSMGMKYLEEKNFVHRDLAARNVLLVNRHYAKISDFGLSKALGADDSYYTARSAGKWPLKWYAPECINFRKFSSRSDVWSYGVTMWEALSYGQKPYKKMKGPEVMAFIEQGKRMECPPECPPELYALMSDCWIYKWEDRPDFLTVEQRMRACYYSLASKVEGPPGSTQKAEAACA

[2] = molecular target: T2, Serine/threonine-protein kinase DCLK2 (Homo sapiens) (UniProt Q8N568); test: Selectivity interaction (KinomeScan (DiscoverX)) EUB0001079a DCLK2; settings: at 1 µM
T2 sequence (whole entry): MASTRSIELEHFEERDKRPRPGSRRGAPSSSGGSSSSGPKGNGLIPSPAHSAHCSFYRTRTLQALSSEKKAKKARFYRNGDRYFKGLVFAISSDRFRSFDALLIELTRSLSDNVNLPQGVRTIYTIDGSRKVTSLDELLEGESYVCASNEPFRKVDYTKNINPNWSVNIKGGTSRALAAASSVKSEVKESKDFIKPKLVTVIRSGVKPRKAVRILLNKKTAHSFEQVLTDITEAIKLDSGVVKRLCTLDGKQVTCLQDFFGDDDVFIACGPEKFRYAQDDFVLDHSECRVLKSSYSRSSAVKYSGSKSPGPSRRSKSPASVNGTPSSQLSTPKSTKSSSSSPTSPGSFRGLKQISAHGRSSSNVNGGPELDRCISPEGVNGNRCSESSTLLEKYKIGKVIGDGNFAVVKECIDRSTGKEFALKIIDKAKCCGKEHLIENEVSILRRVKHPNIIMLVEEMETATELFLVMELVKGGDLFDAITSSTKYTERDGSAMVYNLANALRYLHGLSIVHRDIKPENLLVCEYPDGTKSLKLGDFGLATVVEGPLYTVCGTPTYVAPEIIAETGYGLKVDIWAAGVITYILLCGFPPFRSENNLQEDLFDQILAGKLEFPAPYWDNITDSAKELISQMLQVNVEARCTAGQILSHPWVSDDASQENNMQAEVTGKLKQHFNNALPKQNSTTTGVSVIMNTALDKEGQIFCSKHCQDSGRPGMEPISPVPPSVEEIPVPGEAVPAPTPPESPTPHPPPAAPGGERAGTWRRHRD

[3] = molecular target: Mitogen-activated protein kinase 6 (Homo sapiens) (UniProt Q16659); settings: at 10 µM
Sequence of Mitogen-activated protein kinase 6 (Homo sapiens) (Q16659 whole entry): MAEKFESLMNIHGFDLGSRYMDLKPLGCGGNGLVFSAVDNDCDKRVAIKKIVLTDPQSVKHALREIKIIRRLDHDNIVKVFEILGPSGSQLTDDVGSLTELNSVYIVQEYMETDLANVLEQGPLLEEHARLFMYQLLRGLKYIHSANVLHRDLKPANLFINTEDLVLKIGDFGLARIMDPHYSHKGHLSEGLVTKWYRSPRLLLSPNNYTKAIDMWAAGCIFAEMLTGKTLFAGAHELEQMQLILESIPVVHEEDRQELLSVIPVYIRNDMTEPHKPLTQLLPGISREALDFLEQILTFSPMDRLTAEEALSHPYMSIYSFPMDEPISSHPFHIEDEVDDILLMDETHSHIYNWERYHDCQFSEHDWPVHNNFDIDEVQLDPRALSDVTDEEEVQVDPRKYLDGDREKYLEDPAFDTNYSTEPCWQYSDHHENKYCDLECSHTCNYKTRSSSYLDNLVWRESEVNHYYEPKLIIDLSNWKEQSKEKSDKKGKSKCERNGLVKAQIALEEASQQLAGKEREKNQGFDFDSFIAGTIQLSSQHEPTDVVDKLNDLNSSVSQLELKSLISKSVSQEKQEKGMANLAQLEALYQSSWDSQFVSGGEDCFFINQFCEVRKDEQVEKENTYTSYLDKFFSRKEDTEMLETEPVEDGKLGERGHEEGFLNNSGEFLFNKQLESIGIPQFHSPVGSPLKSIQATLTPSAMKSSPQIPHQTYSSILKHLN

[4] = molecular target: Receptor tyrosine-protein kinase erbB-3 (Homo sapiens) (UniProt P21860); settings: at 10 µM
Sequence of Receptor tyrosine-protein kinase erbB-3 (Homo sapiens) (P21860 whole entry): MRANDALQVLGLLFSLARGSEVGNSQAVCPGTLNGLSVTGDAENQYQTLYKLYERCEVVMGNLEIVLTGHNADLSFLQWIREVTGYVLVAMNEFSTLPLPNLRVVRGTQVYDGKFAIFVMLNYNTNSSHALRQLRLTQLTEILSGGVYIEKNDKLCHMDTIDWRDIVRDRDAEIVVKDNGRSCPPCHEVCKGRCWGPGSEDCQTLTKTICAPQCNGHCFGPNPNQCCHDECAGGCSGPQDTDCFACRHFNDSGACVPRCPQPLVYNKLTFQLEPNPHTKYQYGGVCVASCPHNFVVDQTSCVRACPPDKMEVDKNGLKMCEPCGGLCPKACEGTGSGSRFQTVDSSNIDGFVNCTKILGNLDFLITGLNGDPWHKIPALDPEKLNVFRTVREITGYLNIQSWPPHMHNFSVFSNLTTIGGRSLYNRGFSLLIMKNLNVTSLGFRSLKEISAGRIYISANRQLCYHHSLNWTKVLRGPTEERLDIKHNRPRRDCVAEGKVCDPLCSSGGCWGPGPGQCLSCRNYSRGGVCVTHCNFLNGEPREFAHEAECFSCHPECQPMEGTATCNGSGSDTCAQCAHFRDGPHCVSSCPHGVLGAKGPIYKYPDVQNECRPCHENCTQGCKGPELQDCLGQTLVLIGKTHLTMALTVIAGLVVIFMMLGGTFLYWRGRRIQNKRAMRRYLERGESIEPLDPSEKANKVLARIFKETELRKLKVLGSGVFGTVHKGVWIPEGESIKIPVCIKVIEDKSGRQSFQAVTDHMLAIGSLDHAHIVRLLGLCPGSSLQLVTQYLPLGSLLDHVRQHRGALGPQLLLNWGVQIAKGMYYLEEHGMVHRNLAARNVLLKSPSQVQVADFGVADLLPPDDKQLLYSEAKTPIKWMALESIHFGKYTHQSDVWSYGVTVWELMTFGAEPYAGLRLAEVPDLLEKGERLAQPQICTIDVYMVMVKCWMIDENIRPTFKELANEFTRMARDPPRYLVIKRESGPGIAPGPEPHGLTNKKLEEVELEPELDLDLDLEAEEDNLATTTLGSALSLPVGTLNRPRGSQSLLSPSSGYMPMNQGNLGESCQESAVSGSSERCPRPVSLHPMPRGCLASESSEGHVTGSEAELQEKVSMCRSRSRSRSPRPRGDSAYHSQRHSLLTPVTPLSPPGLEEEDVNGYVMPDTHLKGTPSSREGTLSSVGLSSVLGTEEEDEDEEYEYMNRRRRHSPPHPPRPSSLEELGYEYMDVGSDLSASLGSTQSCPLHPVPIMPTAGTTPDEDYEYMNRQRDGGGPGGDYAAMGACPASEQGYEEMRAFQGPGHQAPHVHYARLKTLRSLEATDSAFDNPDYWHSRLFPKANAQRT

[5] = molecular target: T3, Hormonally up-regulated neu tumor-associated kinase (Homo sapiens) (UniProt P57058); test: Selectivity interaction (KinomeScan (DiscoverX)) EUB0000655a HUNK; settings: at 10 µM
T3 sequence (whole entry): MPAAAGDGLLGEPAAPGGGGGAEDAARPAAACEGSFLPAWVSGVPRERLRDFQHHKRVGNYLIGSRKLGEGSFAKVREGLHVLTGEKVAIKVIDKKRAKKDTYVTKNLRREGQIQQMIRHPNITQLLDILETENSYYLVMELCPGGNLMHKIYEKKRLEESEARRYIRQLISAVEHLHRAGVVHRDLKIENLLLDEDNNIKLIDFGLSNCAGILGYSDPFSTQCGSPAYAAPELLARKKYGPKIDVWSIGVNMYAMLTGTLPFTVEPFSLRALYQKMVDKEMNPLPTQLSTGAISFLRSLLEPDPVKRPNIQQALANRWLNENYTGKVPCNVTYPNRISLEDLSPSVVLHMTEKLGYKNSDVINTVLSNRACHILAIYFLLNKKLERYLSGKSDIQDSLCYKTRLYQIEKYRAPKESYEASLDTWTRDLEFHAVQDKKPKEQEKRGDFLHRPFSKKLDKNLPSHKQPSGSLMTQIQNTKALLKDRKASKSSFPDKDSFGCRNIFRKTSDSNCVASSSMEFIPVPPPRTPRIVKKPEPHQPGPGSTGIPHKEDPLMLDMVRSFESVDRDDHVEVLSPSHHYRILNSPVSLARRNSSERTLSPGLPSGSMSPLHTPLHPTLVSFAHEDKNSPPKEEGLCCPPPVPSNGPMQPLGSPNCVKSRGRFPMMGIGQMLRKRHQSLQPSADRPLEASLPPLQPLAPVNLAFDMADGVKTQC

[6] = molecular target: T4, Mitogen-activated protein kinase kinase kinase 3 (Homo sapiens) (UniProt Q99759); test: Selectivity interaction (ProQinase) EUB0000171b MAP3K3
T4 sequence (whole entry): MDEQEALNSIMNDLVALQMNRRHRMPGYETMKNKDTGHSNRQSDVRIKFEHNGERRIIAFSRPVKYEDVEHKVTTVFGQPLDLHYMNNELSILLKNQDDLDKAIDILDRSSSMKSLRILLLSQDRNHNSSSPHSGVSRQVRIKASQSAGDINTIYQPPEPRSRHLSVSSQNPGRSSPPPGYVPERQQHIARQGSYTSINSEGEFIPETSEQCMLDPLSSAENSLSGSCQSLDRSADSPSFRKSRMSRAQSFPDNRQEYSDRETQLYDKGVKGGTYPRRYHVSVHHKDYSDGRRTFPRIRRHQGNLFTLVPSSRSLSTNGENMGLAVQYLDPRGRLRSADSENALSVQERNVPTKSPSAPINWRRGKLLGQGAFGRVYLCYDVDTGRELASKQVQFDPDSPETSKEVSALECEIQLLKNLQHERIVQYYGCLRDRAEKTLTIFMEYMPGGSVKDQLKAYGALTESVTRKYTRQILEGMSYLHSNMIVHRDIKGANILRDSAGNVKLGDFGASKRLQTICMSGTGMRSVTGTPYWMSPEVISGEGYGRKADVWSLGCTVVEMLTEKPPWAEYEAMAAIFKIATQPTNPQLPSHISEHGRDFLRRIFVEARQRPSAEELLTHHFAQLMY

Compound: COc1cc(N(C)c2ccnc3ccc(C(F)(F)F)cc23)cc(OC)c1OC
- % binding [1]: 100%

Compound: Nc1cnc(N2CCc3cc(S(=O)(=O)Nc4c(F)cc(Cl)cc4F)cc(N4CCCC4=O)c32)nc1 [TP-020n]
- % of control [2]: 100%

Compound: CCN(CC)CCCCNc1ncc2cc(-c3cc(OC)cc(OC)c3)c(NC(=O)NC(C)(C)C)nc2n1
- % of control [3]: 100%

Compound: Cc1cc([C@@H](C)Nc2ccccc2C(=O)O)c2nc(N3CCOCC3)cc(=O)n2c1 [AZD-6482]
- % of control [4]: 100%

Compound: CN(C)CCOc1ccc(-c2nc(-c3ccncc3)c(-c3ccc4c(c3)CC/C4=N\O)[nH]2)cc1
- % of control [5]: 84%

Compound: C=CC(=O)Nc1cccc(C(=O)Nc2ccc(Nc3cc(-c4[nH]c(SC)nc4C)ccn3)cc2)c1
- % of control ([6]; at 1 µM): 102%
- % of control ([6]; at 5 µM): 103%
